Reference: US9908912B2, “Triclosan derivatives and uses thereof” (priority 2012, dated 2018)
Values after ≈ are worked out from the molar mass of the structure shown.

Columns and labels:
S. haemolyticus = test: MIC in Nutrient Agar; type: cell-based, Staphylococcus haemolyticus; settings: Nutrient Agar containing 0.1 μg/ml of inducer; 37° C., 24 hours
Protocol: (§1) The triclosan-glycosides were added to Nutrient Agar (Oxoid CM0003; Thermofisher Scientific) and organisms were transferred onto the plates surface using a multi-point inoculation device (Oxoid Cathra, Thermofisher Scientific). The latter is essentially a metal plate containing a number of needles. Each needle tip (usually 36 per plate) dips into an organism suspension (in phosphate buffered saline; PBS) and the needles are then moved over the agar plate and lowered onto its surface. In this way the growth of colonies of up to 36 different organisms can be observed on one plate.
(§2) Nutrient Agar No. 2 was prepared according to the manufacturers instructions, autoclaved and cooled to 50° C. Test compounds were then added as filter sterilised solutions (50:50 deionised water:ethanol), to give final concentrations from 256 μg/ml to 0 μg/ml in doubling dilutions. […] The mixtures were swirled then four plates (25 ml molten agar) were poured for each concentration. Plates were dried in a laminar flow cabinet then inoculated with overnight cultures of organisms that had been decimally diluted twice in sterile saline solution (approximately 10^7 cfu/ml) using a multi-point inoculator. Plates were then incubated at 37° C. for 24 hours. MICs were determined as the concentration at which no growth was observed.

[1] = system: Kleb. aerogenes NCTC 88167; test: MIC in Nutrient Broth No. 2; type: cell-based, Klebsiella aerogenes; settings: Nutrient Broth No. 2
Protocol: (§3) Bacteria species as indicated in Table 1 were incubated for approximately 24 hours at 37° C.
(§4) The tests were repeated with the addition of inducers. Methyl glycoside was the main inducer used, but other suitable inducers include isopropyl-β-D-thiogalactopyranoside, p-nitrophenyl-α-L-arabinopyranoside and p-nitrophenyl-β-D-xylopyranoside. Concentration of inducer in all cases was 100 μg/ml.

Ser. marcescens = test: MIC in Nutrient Agar; type: cell-based, Serratia marcescens; settings: Nutrient Agar containing 0.1 μg/ml of inducer; 37° C., 24 hours
Protocol: as §1, §2

E. hermanii = test: MIC in Nutrient Agar; type: cell-based, Escherichia hermanii; settings: Nutrient Agar containing 0.1 μg/ml of inducer; 37° C., 24 hours
Protocol: as §1, §2

Kleb. pneumoniae = test: MIC in Nutrient Agar; type: cell-based, Klebsiella pneumoniae; settings: Nutrient Agar containing 0.1 μg/ml of inducer; 37° C., 24 hours
Protocol: as §1, §2

E. coli = test: MIC in Nutrient Agar; type: cell-based, Escherichia coli; settings: 8 strains; Nutrient Agar containing 0.1 μg/ml of inducer; 37° C., 24 hours
Protocol: as §1, §2

Staph. aureus = test: MIC in Nutrient Broth No. 2; type: cell-based, Staphylococcus aureus; settings: 8 strains, Nutrient Broth No. 2
Protocol: as §3, §4

[2] = system: Strep. pyogenes ATCC 19615; test: MIC in Nutrient Broth No. 2; type: cell-based, Streptococcus pyogenes; settings: Nutrient Broth No. 2
Protocol: as §3, §4

Ent. faecalis = test: MIC in Nutrient Agar; type: cell-based, Enterococcus faecalis; settings: Nutrient Agar containing 0.1 μg/ml of inducer; 37° C., 24 hours
Protocol: as §1, §2

[3] = system: Strep. agalactiae OCC 182; test: MIC in Nutrient Broth No. 2; type: cell-based, Streptococcus agalactiae; settings: Nutrient Broth No. 2
Protocol: as §3, §4

Aer. hydrophila = test: MIC in Nutrient Agar; type: cell-based, Aeromonas hydrophila; settings: Nutrient Agar containing 0.1 μg/ml of inducer; 37° C., 24 hours
Protocol: as §1, §2

Cr. sakazakii = test: MIC in Nutrient Agar; type: cell-based, Cronobacter sakazakii; settings: Nutrient Agar containing 0.1 μg/ml of inducer; 37° C., 24 hours
Protocol: as §1, §2

Str. pneumoniae = test: MIC in Nutrient Agar; type: cell-based, Streptococcus pneumoniae; settings: Nutrient Agar containing 0.1 μg/ml of inducer; 37° C., 24 hours
Protocol: as §1, §2

Ent. cloacae ATCC 13047 = test: MIC in Nutrient Broth No. 2; type: cell-based, Enterobacter cloacae; settings: Nutrient Broth No. 2
Protocol: as §3, §4

C. freundii = test: MIC in Nutrient Agar; type: cell-based, Citrobacter freundii; settings: Nutrient Agar containing 0.1 μg/ml of inducer; 37° C., 24 hours
Protocol: as §1, §2

Ent. faecium = test: MIC in Nutrient Agar; type: cell-based, Enterococcus faecium; settings: Nutrient Agar containing 0.1 μg/ml of inducer; 37° C., 24 hours
Protocol: as §1, §2

[4] = system: Ps. Aeruginosa ATCC 27853; test: MIC in Nutrient Broth No. 2; type: cell-based; settings: Nutrient Broth No. 2
Protocol: as §3, §4

[5] = system: Proteus mirabilis ATCC 12453; test: MIC in Nutrient Broth No. 2; type: cell-based; settings: Nutrient Broth No. 2
Protocol: as §3, §4

[6] = system: Citrobacter freundii OCC 851; test: MIC in Nutrient Broth No. 2; type: cell-based; settings: Nutrient Broth No. 2
Protocol: as §3, §4

[7] = system: Enterobacter aerogenes ATCC 13048; test: MIC in Nutrient Broth No. 2; type: cell-based; settings: Nutrient Broth No. 2
Protocol: as §3, §4

Hafnia alvei ATCC 13337 = test: MIC in Nutrient Broth No. 2; type: cell-based; settings: Nutrient Broth No. 2
Protocol: as §3, §4

[8] = system: Bacillus subtilis NCTC 10073; test: MIC in Nutrient Broth No. 2; type: cell-based; settings: Nutrient Broth No. 2
Protocol: as §3, §4

[9] = system: Bacillus cereus ATCC 14579; test: MIC in Nutrient Broth No. 2; type: cell-based; settings: Nutrient Broth No. 2
Protocol: as §3, §4

Proteus vulgaris OCC 195 = test: MIC in Nutrient Broth No. 2; type: cell-based; settings: Nutrient Broth No. 2
Protocol: as §3, §4

Salmonella = test: MIC in Nutrient Broth No. 2; type: cell-based; settings: 11 strains; Nutrient Broth No. 2; with inducer 100 μg/ml
Protocol: as §3, §4

[10] = system: Aeromonas hydrophila OCC 778; test: MIC in Nutrient Broth No. 2; type: cell-based; settings: Nutrient Broth No. 2
Protocol: as §3, §4

Escherichia coli = test: MIC in Nutrient Broth No. 2; type: cell-based; settings: 8 strains, Nutrient Broth No. 2
Protocol: as §3, §4

[11] = system: Enterococcus faecalis ATCC 29212; test: MIC in Nutrient Broth No. 2; type: cell-based; settings: Nutrient Broth No. 2
Protocol: as §3, §4

[12] = system: Enterococcus faecium ATCC 19434; test: MIC in Nutrient Broth No. 2; type: cell-based; settings: Nutrient Broth No. 2
Protocol: as §3, §4

[13] = system: Serratia marcescens OCC 217; test: MIC in Nutrient Broth No. 2; type: cell-based; settings: Nutrient Broth No. 2
Protocol: as §3, §4

Str. viridans = test: MIC in Nutrient Agar; type: cell-based, Streptococcus viridans; settings: Nutrient Agar containing 0.1 μg/ml of inducer; 37° C., 24 hours
Protocol: as §1, §2

[14] = system: Staph. saprophyticus ATCC 15305; test: MIC in Nutrient Broth No. 2; type: cell-based, Staphylococcus saprophyticus; settings: Nutrient Broth No. 2
Protocol: as §3, §4

Kleb. aerogenes = test: MIC in Nutrient Agar; type: cell-based, Klebsiella aerogenes; settings: Nutrient Agar containing 0.1 μg/ml of inducer; 37° C., 24 hours
Protocol: as §1, §2

Structure (SMILES): OC[C@H]1O[C@@H](Oc2cc(Cl)ccc2Oc2ccc(Cl)cc2Cl)[C@H](O)[C@@H](O)[C@@H]1O [β-D-Glucoside, triclosan-β-D-glucopyranoside]
- MIC (S. haemolyticus): 16 µg/mL (≈ 35.4 µM)
- MIC ([1]; with inducer 100 μg/ml): 4 µg/mL (≈ 8.86 µM)
- MIC ([1]; without inducer): 32 µg/mL (≈ 70.8 µM)
- MIC (Ser. marcescens): >256 µg/mL
- MIC (E. hermanii): 16 µg/mL (≈ 35.4 µM)
- MIC (Kleb. pneumoniae): 4 µg/mL (≈ 8.86 µM)
- MIC (E. coli): 16 to 32 µg/mL
- MIC (Staph. aureus; with inducer 100 μg/ml): 0.5 to 2 µg/mL
- MIC (Staph. aureus; without inducer): 4 to 8 µg/mL
- MIC ([2]; with inducer 100 μg/ml): 16 µg/mL (≈ 35.4 µM)
- MIC ([2]; without inducer): 32 µg/mL (≈ 70.8 µM)
- MIC (Ent. faecalis): >256 µg/mL
- MIC ([3]; with inducer 100 μg/ml): 128 µg/mL (≈ 283 µM)
- MIC ([3]; without inducer): 256 µg/mL (≈ 567 µM)
- MIC (Aer. hydrophila): >256 µg/mL
- MIC (Cr. sakazakii): 32 µg/mL (≈ 70.8 µM)
- MIC (Str. pneumoniae): 128 µg/mL (≈ 283 µM)
- MIC (Ent. cloacae ATCC 13047; with inducer 100 μg/ml): 1 µg/mL (≈ 2.21 µM)
- MIC (Ent. cloacae ATCC 13047; without inducer): 16 µg/mL (≈ 35.4 µM)
- MIC (C. freundii): 64 µg/mL (≈ 142 µM)
- MIC (Ent. faecium): >256 µg/mL
- MIC ([4]; with inducer 100 μg/ml): >256 µg/mL
- MIC ([4]; without inducer): >256 µg/mL
- MIC ([5]; with inducer 100 μg/ml): 2 µg/mL (≈ 4.43 µM)
- MIC ([5]; without inducer): 16 µg/mL (≈ 35.4 µM)
- MIC ([6]; with inducer 100 μg/ml): 8 µg/mL (≈ 17.7 µM)
- MIC ([6]; without inducer): 64 µg/mL (≈ 142 µM)
- MIC ([7]; with inducer 100 μg/ml): 16 µg/mL (≈ 35.4 µM)
- MIC ([7]; without inducer): 64 µg/mL (≈ 142 µM)
- MIC (Hafnia alvei ATCC 13337; with inducer 100 μg/ml): 0.5 µg/mL (≈ 1.11 µM)
- MIC (Hafnia alvei ATCC 13337; without inducer): 4 µg/mL (≈ 8.86 µM)
- MIC ([8]; with inducer 100 μg/ml): 32 µg/mL (≈ 70.8 µM)
- MIC ([8]; without inducer): 256 µg/mL (≈ 567 µM)
- MIC ([9]; with inducer 100 μg/ml): 128 µg/mL (≈ 283 µM)
- MIC ([9]; without inducer): 256 µg/mL (≈ 567 µM)
- MIC (Proteus vulgaris OCC 195; with inducer 100 μg/ml): 8 µg/mL (≈ 17.7 µM)
- MIC (Proteus vulgaris OCC 195; without inducer): 64 µg/mL (≈ 142 µM)
- MIC (Salmonella): 2 to 8 µg/mL
- MIC ([10]; with inducer 100 μg/ml): 256 µg/mL (≈ 567 µM)
- MIC ([10]; without inducer): >256 µg/mL
- MIC (Escherichia coli; with inducer 100 μg/ml): 1 to 8 µg/mL
- MIC (Escherichia coli; without inducer): 8 to 64 µg/mL
- MIC ([11]; with inducer 100 μg/ml): 128 µg/mL (≈ 283 µM)
- MIC ([11]; without inducer): 16 µg/mL (≈ 35.4 µM)
- MIC ([12]; with inducer 100 μg/ml): 256 µg/mL (≈ 567 µM)
- MIC ([12]; without inducer): >256 µg/mL
- MIC ([13]; with inducer 100 μg/ml): >256 µg/mL
- MIC ([13]; without inducer): >256 µg/mL
- MIC (Str. viridans): 256 µg/mL (≈ 567 µM)
- MIC ([14]; with inducer 100 μg/ml): 8 µg/mL (≈ 17.7 µM)
- MIC ([14]; without inducer): 64 µg/mL (≈ 142 µM)
- MIC (Kleb. aerogenes): 32 µg/mL (≈ 70.8 µM)
